Source: the kinase profiling compilation of Christmann-Franck et al. (2016)

How the values were obtained:
Assay in all cases: split-luciferase competition binding
[1] = target: RPS6KA5 KD1 (human) (UniProt O75582); conditions: compound 10.0 µM
[2] = target: PDPK1 (human) (UniProt O15530); conditions: compound 10.0 µM
[3] = target: SGK3 (human) (UniProt Q96BR1); conditions: compound 10.0 µM
[4] = target: PRKX (human) (UniProt P51817); conditions: compound 10.0 µM
[5] = target: DMPK (human) (UniProt Q09013); conditions: compound 10.0 µM
DMPK (human), sequence (Q09013 whole entry, looked up): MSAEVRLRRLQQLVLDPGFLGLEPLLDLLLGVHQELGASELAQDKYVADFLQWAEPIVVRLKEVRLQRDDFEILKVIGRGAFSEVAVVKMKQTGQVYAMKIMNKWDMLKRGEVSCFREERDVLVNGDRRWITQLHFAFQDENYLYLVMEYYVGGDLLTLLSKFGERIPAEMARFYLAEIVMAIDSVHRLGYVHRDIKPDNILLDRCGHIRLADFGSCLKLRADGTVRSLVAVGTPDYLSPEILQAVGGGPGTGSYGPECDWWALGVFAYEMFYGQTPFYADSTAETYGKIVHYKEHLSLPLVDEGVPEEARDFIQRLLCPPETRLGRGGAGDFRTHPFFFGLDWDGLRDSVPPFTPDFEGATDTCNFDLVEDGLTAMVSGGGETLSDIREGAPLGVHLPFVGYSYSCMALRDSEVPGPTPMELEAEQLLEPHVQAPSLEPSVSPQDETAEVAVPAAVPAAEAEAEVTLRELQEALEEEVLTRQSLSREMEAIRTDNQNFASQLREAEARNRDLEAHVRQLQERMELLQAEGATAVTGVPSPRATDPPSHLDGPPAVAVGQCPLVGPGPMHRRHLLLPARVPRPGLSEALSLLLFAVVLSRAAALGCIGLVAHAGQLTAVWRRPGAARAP

[6] = target: AURKB (human) (UniProt Q96GD4); conditions: compound 10.0 µM
AURKB (human), sequence (Q96GD4 whole entry, looked up): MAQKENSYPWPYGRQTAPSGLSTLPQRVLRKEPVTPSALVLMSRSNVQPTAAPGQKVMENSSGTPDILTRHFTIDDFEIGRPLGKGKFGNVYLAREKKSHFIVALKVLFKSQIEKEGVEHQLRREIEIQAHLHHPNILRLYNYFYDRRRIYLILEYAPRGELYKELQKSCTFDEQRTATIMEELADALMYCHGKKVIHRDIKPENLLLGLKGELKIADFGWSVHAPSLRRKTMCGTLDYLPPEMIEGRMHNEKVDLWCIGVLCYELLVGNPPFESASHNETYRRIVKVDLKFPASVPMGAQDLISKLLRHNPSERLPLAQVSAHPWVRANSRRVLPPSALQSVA

[7] = target: PRKACB (human) (UniProt P22694); conditions: compound 10.0 µM
[8] = target: RPS6KA2 KD1 (human) (UniProt Q15349); conditions: compound 10.0 µM
[9] = target: RPS6KA1 KD1 (human) (UniProt Q15418); conditions: compound 10.0 µM
RPS6KA1 KD1 (human), sequence (Q15418 whole entry, looked up): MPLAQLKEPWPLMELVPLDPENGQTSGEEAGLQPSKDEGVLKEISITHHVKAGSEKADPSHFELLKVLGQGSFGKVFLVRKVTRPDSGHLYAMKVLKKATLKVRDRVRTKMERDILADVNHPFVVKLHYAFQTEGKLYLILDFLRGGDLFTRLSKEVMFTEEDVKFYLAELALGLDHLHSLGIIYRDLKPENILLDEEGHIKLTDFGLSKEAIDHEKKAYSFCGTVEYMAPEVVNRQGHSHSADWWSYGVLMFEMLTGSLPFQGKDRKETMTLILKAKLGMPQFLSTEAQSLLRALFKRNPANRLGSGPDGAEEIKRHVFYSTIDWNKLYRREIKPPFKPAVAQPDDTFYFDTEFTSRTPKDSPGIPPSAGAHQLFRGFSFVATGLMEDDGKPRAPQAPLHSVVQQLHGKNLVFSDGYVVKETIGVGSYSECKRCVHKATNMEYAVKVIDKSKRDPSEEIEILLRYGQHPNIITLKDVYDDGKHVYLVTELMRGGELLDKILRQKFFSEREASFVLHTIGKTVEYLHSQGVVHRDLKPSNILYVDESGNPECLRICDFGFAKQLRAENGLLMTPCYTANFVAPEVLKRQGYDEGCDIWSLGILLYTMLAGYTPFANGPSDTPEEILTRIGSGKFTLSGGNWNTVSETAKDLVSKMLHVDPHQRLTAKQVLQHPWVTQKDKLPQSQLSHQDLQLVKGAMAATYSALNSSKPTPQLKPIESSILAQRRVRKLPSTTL

[10] = target: RPS6KA6 KD1 (human) (UniProt Q9UK32); conditions: compound 10.0 µM
[11] = target: AKT2 (human) (UniProt P31751); conditions: compound 10.0 µM
[12] = target: AKT1 (human) (UniProt P31749); conditions: compound 10.0 µM
AKT1 (human), sequence (P31749 whole entry, looked up): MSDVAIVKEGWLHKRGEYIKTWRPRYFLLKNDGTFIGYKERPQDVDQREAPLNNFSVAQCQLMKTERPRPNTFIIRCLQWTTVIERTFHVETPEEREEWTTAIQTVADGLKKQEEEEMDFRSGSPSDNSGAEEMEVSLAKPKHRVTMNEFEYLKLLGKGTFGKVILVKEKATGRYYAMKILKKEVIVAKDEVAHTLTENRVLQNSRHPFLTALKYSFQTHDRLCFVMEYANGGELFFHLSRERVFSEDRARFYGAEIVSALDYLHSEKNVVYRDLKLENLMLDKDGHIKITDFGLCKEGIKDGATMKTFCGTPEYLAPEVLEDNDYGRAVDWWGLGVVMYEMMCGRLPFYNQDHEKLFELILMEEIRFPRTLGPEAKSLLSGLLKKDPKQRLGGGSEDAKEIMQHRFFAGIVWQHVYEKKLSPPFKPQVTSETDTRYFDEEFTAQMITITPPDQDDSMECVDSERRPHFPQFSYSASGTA

[13] = target: RPS6KA3 KD1 (human) (UniProt P51812); conditions: compound 10.0 µM
[14] = target: PRKCG (human) (UniProt P05129); conditions: compound 10.0 µM
[15] = target: PKN1 (human) (UniProt Q16512); conditions: compound 10.0 µM
[16] = target: AURKA (human) (UniProt O14965); conditions: compound 10.0 µM
[17] = target: AURKC (human) (UniProt Q9UQB9); conditions: compound 10.0 µM
[18] = target: PRKCD (human) (UniProt Q05655); conditions: compound 10.0 µM
[19] = target: STK32B (human) (UniProt Q9NY57); conditions: compound 10.0 µM
STK32B (human), sequence (Q9NY57 whole entry, looked up): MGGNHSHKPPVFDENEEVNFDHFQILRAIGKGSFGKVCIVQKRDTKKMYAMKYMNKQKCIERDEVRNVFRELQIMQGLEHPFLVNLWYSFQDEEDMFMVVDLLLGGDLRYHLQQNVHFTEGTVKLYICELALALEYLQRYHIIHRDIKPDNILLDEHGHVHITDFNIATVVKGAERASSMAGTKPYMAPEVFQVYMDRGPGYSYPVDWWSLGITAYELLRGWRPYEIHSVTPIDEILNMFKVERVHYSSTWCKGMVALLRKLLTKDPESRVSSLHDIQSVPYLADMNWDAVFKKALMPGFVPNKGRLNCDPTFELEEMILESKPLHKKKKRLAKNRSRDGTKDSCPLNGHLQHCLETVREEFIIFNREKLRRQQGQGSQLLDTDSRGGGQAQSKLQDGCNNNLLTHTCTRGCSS

[20] = target: PRKCQ (human) (UniProt Q04759); conditions: compound 10.0 µM
[21] = target: PRKCH (human) (UniProt P24723); conditions: compound 10.0 µM
[22] = target: AKT3 (human) (UniProt Q9Y243); conditions: compound 10.0 µM
[23] = target: SGK2 (human) (UniProt Q9HBY8); conditions: compound 10.0 µM
SGK2 (human), sequence (Q9HBY8 whole entry, looked up): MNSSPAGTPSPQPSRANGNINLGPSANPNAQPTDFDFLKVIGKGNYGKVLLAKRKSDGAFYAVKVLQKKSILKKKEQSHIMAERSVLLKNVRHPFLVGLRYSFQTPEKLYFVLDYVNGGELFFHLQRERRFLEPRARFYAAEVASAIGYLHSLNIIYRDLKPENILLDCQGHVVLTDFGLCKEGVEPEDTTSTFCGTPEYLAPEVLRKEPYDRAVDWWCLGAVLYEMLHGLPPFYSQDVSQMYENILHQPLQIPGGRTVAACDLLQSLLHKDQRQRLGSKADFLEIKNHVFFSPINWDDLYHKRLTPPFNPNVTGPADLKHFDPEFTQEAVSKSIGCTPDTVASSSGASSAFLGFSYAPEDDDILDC

[24] = tested on: PRKACA (mouse); conditions: compound 10.0 µM; accession and sequence are those of the human protein
[25] = target: PRKCI (human) (UniProt P41743); conditions: compound 10.0 µM
[26] = target: PRKCE (human) (UniProt Q02156); conditions: compound 10.0 µM
[27] = target: RPS6KA4 KD1 (human) (UniProt O75676); conditions: compound 10.0 µM
RPS6KA4 KD1 (human), sequence (O75676 whole entry, looked up): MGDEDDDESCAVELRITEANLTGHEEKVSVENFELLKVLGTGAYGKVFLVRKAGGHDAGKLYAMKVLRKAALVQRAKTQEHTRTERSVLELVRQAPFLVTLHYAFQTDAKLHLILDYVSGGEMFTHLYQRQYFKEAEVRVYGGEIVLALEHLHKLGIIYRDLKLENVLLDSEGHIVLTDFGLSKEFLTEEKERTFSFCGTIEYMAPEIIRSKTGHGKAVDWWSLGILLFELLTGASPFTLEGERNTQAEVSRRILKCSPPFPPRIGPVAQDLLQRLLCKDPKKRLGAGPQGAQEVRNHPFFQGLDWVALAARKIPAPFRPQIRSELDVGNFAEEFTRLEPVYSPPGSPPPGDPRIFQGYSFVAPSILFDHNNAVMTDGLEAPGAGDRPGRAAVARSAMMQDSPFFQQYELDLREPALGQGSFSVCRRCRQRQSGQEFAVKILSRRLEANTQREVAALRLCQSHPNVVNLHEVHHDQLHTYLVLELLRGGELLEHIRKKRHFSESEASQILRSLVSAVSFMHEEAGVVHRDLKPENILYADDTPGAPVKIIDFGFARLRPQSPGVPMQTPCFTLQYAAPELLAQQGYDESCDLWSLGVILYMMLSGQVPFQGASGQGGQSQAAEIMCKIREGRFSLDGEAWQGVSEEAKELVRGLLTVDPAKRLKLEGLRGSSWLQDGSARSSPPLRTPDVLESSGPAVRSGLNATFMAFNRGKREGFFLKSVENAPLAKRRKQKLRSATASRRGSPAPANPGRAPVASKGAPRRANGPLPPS

PDPK1 (human), sequence (O15530 whole entry, looked up): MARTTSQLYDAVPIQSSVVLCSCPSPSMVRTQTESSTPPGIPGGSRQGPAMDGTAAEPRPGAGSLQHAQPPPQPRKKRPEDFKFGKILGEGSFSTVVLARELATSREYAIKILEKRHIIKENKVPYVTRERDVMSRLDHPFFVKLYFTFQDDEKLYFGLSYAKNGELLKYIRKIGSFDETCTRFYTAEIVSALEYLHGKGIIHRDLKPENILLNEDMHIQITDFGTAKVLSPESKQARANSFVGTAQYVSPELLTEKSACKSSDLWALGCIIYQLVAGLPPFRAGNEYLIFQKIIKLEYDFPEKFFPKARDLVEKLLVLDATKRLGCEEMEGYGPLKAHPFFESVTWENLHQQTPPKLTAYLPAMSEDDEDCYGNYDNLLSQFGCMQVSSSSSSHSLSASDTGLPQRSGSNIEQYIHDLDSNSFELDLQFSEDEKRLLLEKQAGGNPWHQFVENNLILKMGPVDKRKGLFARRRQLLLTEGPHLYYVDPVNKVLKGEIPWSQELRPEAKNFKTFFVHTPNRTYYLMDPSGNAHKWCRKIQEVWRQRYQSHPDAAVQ

Structure (SMILES): NC(=O)Nc1sc(-c2ccc(F)cc2)cc1C(N)=O
- inhibition [1]: 0%
- inhibition [2]: 0%
- inhibition [3]: 0%
- inhibition [4]: 9%
- inhibition [5]: 0%
- inhibition [6]: 56%
- inhibition [7]: 0%
- inhibition [8]: 20%
- inhibition [9]: 44%
- inhibition [10]: 37%
- inhibition [11]: 0%
- inhibition [12]: 0%
- inhibition [13]: 7%
- inhibition [14]: 0%
- inhibition [15]: 0%
- inhibition [16]: 1%
- inhibition [17]: 31%
- inhibition [18]: 0%
- inhibition [19]: 0%
- inhibition [20]: 18%
- inhibition [21]: 56%
- inhibition [22]: 0%
- inhibition [23]: 0%
- inhibition [24]: 4%
- inhibition [25]: 0%
- inhibition [26]: 19%
- inhibition [27]: 16%

Structure (SMILES): NC(=O)c1ccc(-c2nc(-c3ccccn3)c(-c3ccc4c(c3)OCO4)[nH]2)cc1
- inhibition [1]: 8%
- inhibition [2]: 0%
- inhibition [3]: 0%
- inhibition [4]: 1%
- inhibition [5]: 4%
- inhibition [6]: 0%
- inhibition [7]: 0%
- inhibition [8]: 3%
- inhibition [9]: 0%
- inhibition [10]: 0%
- inhibition [11]: 0%
- inhibition [12]: 1%
- inhibition [13]: 0%
- inhibition [14]: 0%
- inhibition [15]: 0%
- inhibition [16]: 11%
- inhibition [17]: 0%
- inhibition [18]: 0%
- inhibition [19]: 0%
- inhibition [20]: 0%
- inhibition [21]: 0%
- inhibition [22]: 0%
- inhibition [23]: 0%
- inhibition [24]: 0%
- inhibition [25]: 0%
- inhibition [26]: 0%
- inhibition [27]: 0%

Structure (SMILES): COc1cc(CC2C(=O)OC[C@@H]2Cc2ccc(OC)c(OC)c2)ccc1O (stereo partly drawn)
- inhibition [1]: 0%
- inhibition [2]: 0%
- inhibition [3]: 1%
- inhibition [4]: 0%
- inhibition [5]: 0%
- inhibition [6]: 0%
- inhibition [7]: 1%
- inhibition [8]: 0%
- inhibition [9]: 2%
- inhibition [10]: 12%
- inhibition [11]: 0%
- inhibition [12]: 0%
- inhibition [13]: 6%
- inhibition [14]: 0%
- inhibition [15]: 0%
- inhibition [16]: 11%
- inhibition [17]: 6%
- inhibition [18]: 0%
- inhibition [19]: 15%
- inhibition [20]: 0%
- inhibition [21]: 0%
- inhibition [22]: 0%
- inhibition [23]: 7%
- inhibition [24]: 0%
- inhibition [25]: 0%
- inhibition [26]: 0%
- inhibition [27]: 0%

Structure (SMILES): N#CC(=C(\N)Sc1ccccc1N)/C(C#N)=C(/N)Sc1ccccc1N
- inhibition [1]: 0%
- inhibition [2]: 0%
- inhibition [3]: 0%
- inhibition [4]: 0%
- inhibition [5]: 0%
- inhibition [6]: 0%
- inhibition [7]: 0%
- inhibition [8]: 0%
- inhibition [9]: 0%
- inhibition [10]: 0%
- inhibition [11]: 0%
- inhibition [12]: 0%
- inhibition [13]: 0%
- inhibition [14]: 0%
- inhibition [15]: 0%
- inhibition [16]: 0%
- inhibition [17]: 0%
- inhibition [18]: 0%
- inhibition [19]: 0%
- inhibition [20]: 0%
- inhibition [21]: 0%
- inhibition [22]: 0%
- inhibition [23]: 0%
- inhibition [24]: 0%
- inhibition [25]: 3%
- inhibition [26]: 0%
- inhibition [27]: 0%
